# Reference: patent US9861616B2, “Methods for treating respiratory diseases and formulations therefor” (priority 2013, dated 2018)
# Like-named read-outs stand apart in the source and are kept apart here.
# Assays:
# [1] = test system: MRSA strains from CF patients; test: Microdilution MICs against 40 MRSA strains from CF patients; format: cell-based, S. aureus; conditions: for MIC50 / MIC90: 40 MRSA strains from CF patients
# Description: Two strains each of mucoid P. aeruginosa (both pyocyanin positive) and […] MRSA (only one strain with gold colonies) isolated from patients at a CF clinic were tested. Additionally, 2 B. cepacia strains were acquired, from Hershey Medical Center. All strains were identified by standard methods. Only one strain per patient was tested. MLVA was done on all strains to examine clonality, and confirmed that examination is not taking place on only one or a few clones. Strains will be stored in skim milk at −70° C. until use.
# (§1) Original MICs of each strain to CEM-101 and other comparators were tested by CLSI microdilution methodology. Trays were obtained from Trek, Inc., Cleveland, Ohio. Time-kill macrobroth MIC dilution by CLSI was performed for all synergy testing.
# TNFα release = test: LPS-induced TNFα release in PMA-differentiated U937 cells (ELISA); format: cell-based, human
# Description: Effects of macrolides on lipopolysaccharide (LPS)-induced TNFα release in PMA-differentiated U937 cells. […] LPS-induced TNFα release was evaluated by ELISA. Values represent means of three experiments±SEM. ^##p<0.01 (vs. non-treatment control), *p<0.05, **p<0.01 (vs. treatment with LPS only).
# The human monocytic cell line U937 was obtained from the American Type Culture Collection (ATCC, Rockville, Md.). PBMCs from COPD patients were obtained from Brompton hospital and separated by AccuSPIN (Sigma-Aldrich). Cells were cultured in complete growth medium (RPMI 1640) (Sigma-Aldrich) supplemented with 10% fetal bovine serum (FBS) and 1% L-glutamine at 37° C. in a humidified atmosphere with 5% CO2. U937 cells were differentiated into adherent macrophage-like morphology by exposure to PMA (50 ng/mL) for 48 hrs in complete growth medium. Cell viability was assessed microscopically by trypan blue staining. Cell toxicity was determined by MTT assay as needed. This study was approved by the ethics committee of the Royal Brompton Hospitals, and all subjects gave written informed consent.
# TNFα and IL-8 concentrations in the supernatant of cell cultures were determined by sandwich ELISA according to the manufacturer's instructions (R&D Systems Europe, Abingdon, UK).
# The results were expressed as the mean±SEM. Comparisons of data in two groups were performed using the Student's t test or the Wilcoxon signed rank test. Multiple comparisons were made by one-way ANOVA with post hoc test (Dunnett's) as appropriate. The difference was considered significant at p<0.05. IC50 values (50% inhibitory concentration) for macrolides for production of cytokines or MMP9 were calculated using Prism 4.0 (GraphPad Software Inc., San Diego, Calif.).
# P. aeruginosa PAO1 = test: MIC by microdilution with PaβN or EGTA, wild-type strain; format: cell-based
# Description: (§2) MICs of 36 clinical and laboratory strains of PA with known efflux phenotype are measured by microdilution in cation-adjusted Muller-Hinton broth (CA-MHB) or in RPMI medium (commonly used in eukaryotic cell culture). Phe-Arg-β-naphthylamide (PaβN, 50 mg/L) and EGTA 5 mM are used to inhibit efflux pumps and alter OM integrity, respectively. P. aeruginosa strain ATCC PAO1 is used as reference. PA12 is a clinical strain overexpressing the 4 main efflux systems (MexAB, MexCD, MexEF, MexXY), PA403 is a laboratory strain deleted in the genes coding for the 4 efflux systems. A series of reference strains or of clinical isolates for which the expression of genes coding for efflux pumps is known is also used for MICs determinations. MICs are measured by microdilution in MH broth or in RPMI medium (used for eukaryotic cells culture) supplemented with 10% of fetal calf serum, or in MH broth supplemented by increasing amounts of serum. EGTA (5 mM) was used as a chelating agent (disrupting outer membrane integrity) and PaβN (50 mg/L) as an unspecific efflux inhibitor.
# P. aeruginosa PA403 = test: MIC by microdilution with PaβN or EGTA, efflux-deleted laboratory strain; format: cell-based
# Description: as §2, with “The compounds described herein are poor substrates of efflux pumps expressed in P. aeruginosa (PA). MICs of” for “MICs of”
# [2] = test system: P. aeruginosa PSAR 461, PSAR 468; test: Time-kill macrobroth MICs; format: cell-based
# Description: as §1
# (§3) Two of the MRSA strains were chosen and tested for synergy, together with the 4 Gram-negative strains mentioned above. Broth macrodilution formed the basis of MICs used in time-kill experiments, as detailed below. The kill kinetics of each drug was tested alone by incubating an initial inoculum of 5×10^5 to 5×10^6 cfu/mL with drug concentrations at the MIC, three dilutions above and three dilutions below the MIC (½, ¼ and ⅛×MIC). Viability counts were performed after 0, 3, 6, 12 and 24 h incubation at 37° C. in a shaking water bath by plating onto trypticase soy-5% sheep blood agar plates.
# [3] = test system: B. cepacia BCEP 953, BCEP 954; test: Time-kill macrobroth MICs; format: cell-based
# Description: as §1, §3
# [4] = Staphylococcus aureus, read-out: MIC50
# [5] = Staphylococcus aureus, read-out: MIC90
# [6] = Homo sapiens, U-937, U937 cells, at 333 μM, read-out: IC50, LPS-induced TNFα release: NE at 333 μM
# [7] = Pseudomonas aeruginosa, PAO1, PAO1, CA-MHB, EGTA 5 mM, read-out: MIC
# [8] = Pseudomonas aeruginosa, PAO1, PAO1, CA-MHB, PaβN 50 mg/L, read-out: MIC
# [9] = Pseudomonas aeruginosa, PAO1, PAO1, CA-MHB, control conditions (CT)
# [10] = Pseudomonas aeruginosa, PAO1, PAO1, RPMI, EGTA 5 mM, read-out: MIC
# [11] = Pseudomonas aeruginosa, PAO1, PAO1, RPMI, PaβN 50 mg/L, read-out: MIC
# [12] = Pseudomonas aeruginosa, PAO1, PAO1, RPMI, control conditions (CT), read-out: MIC
# [13] = PMA-differentiated U937 cells, read-out: IC50, LPS-induced TNFα release
# [14] = Pseudomonas aeruginosa, PA403, P403, CA-MHB, EGTA 5 mM, read-out: MIC
# [15] = Pseudomonas aeruginosa, PA403, P403, CA-MHB, control conditions (CT), read-out: MIC
# [16] = Pseudomonas aeruginosa, PA403, P403, RPMI, EGTA 5 mM, read-out: MIC
# [17] = Pseudomonas aeruginosa, PA403, P403, RPMI, PaβN 50 mg/L, read-out: MIC
# [18] = Pseudomonas aeruginosa, PA403, P403, RPMI, control conditions (CT), read-out: MIC
SMILES,"MIC50 [1, 4] [µg/mL]","MIC90 [1, 5] [µg/mL]",effect on TNFα production (TNFα release; 33 to 333 μM (FIG. 3)),IC50 (TNFα release; [6]) [µM],MIC (P. aeruginosa PAO1; [7]) [µg/mL],MIC (P. aeruginosa PAO1; [8]) [µg/mL],MIC (P. aeruginosa PAO1; [9]) [µg/mL],MIC (P. aeruginosa PAO1; [10]) [µg/mL],MIC (P. aeruginosa PAO1; [11]) [µg/mL],MIC (P. aeruginosa PAO1; [12]) [µg/mL],IC50 (TNFα release; [13]) [µM],effect on TNFα production (TNFα release; at 100 μM),MIC (P. aeruginosa PA403; [14]) [µg/mL],MIC (P. aeruginosa PA403; [15]) [µg/mL],MIC (P. aeruginosa PA403; [16]) [µg/mL],MIC (P. aeruginosa PA403; [17]) [µg/mL],MIC (P. aeruginosa PA403; [18]) [µg/mL],other results
"CC[C@H]1OC(=O)[C@H](C)[C@@H](O[C@H]2C[C@@](C)(OC)[C@@H](O)[C@H](C)O2)[C@H](C)[C@@H](O[C@@H]2O[C@H](C)C[C@H](N(C)C)[C@H]2O)[C@](C)(O)C[C@@H](C)CN(C)[C@H](C)[C@@H](O)[C@]1(C)O [AZM, azithromycin]",≥ 32,≥ 32,did not inhibit,> 333,8,4,128,0.25,4,2,,,,,,,,
"CC[C@H]1OC(=O)[C@@](C)(F)C(=O)[C@H](C)[C@@H](O[C@@H]2O[C@H](C)C[C@H](N(C)C)[C@H]2O)[C@](C)(OC)C[C@@H](C)C(=O)[C@H](C)[C@H]2N(CCCCn3cc(-c4cccc(N)c4)nn3)C(=O)O[C@]12C [CEM-101, solithromycin]",,,,,,,,,,,41.6 ± 1.9,significantly inhibited,,,,,,"MICs against the strains it was active against ([1]; 21 of the 40 MRSA strains): 0.06 to 0.25 µg/mL; share of strains against which active ([1]; 21 of the 40 MRSA strains, MICs 0.06-0.25): 52.5%; MIC50 [1]: 0.25 µg/mL; MIC90 [1]: ≧16 μg/mL; MICs against the remaining organisms ([1]; remaining 19 of 40 MRSA strains): ≥ 16 µg/mL; MIC (P. aeruginosa PA403; P403, CA-MHB, EGTA 5 mM): 1 µg/mL; MIC (P. aeruginosa PA403; P403, CA-MHB, control conditions (CT)): 4 µg/mL; MIC (P. aeruginosa PA403; P403, RPMI, EGTA 5 mM): 0.25 µg/mL; MIC (P. aeruginosa PA403; P403, RPMI, PaβN 50 mg/L): 2 µg/mL; MIC (P. aeruginosa PA403; P403, RPMI, control conditions (CT)): 1 µg/mL; Time-kill Macrobroth MIC ([2]; strain PSAR 461): 64.0 µg/mL; Time-kill Macrobroth MIC ([2]; strain PSAR 468): 32.0 µg/mL; Time-kill Macrobroth MIC ([3]; strain BCEP 953): 8.0 µg/mL; Time-kill Macrobroth MIC ([3]; strain BCEP 954): 32.0 µg/mL; MIC (P. aeruginosa PAO1; PAO1, CA-MHB, EGTA 5 mM): 8 µg/mL; MIC (P. aeruginosa PAO1; PAO1, CA-MHB, PaβN 50 mg/L): 8 µg/mL; MIC (P. aeruginosa PAO1; PAO1, CA-MHB, control conditions (CT)): 32 µg/mL; MIC (P. aeruginosa PAO1; PAO1, RPMI, EGTA 5 mM): 1 µg/mL; MIC (P. aeruginosa PAO1; PAO1, RPMI, PaβN 50 mg/L): 2 µg/mL; MIC (P. aeruginosa PAO1; PAO1, RPMI, control conditions (CT)): 2 µg/mL"
"CC[C@H]1OC(=O)[C@H](C)C(=O)[C@H](C)[C@@H](O[C@@H]2O[C@H](C)C[C@H](N(C)C)[C@H]2O)[C@](C)(OC)C[C@@H](C)C(=O)[C@H](C)[C@H]2N(CCCCn3cnc(-c4cccnc4)c3)C(=O)O[C@]12C [TEL, telithromycin]",,,,,32,4,128,1,4,2,,did not inhibit,2,4,0.06,1,0.5,"IC50 (TNFα release; Homo sapiens, U-937, read-out: IC50, LPS-induced TNFα release: NE at 100 μM, U937 cells, at 100 μM): > 100 µM"
"CC[C@H]1OC(=O)[C@H](C)[C@@H](O[C@H]2C[C@@](C)(OC)[C@@H](O)[C@H](C)O2)[C@H](C)[C@@H](O[C@@H]2O[C@H](C)C[C@H](N(C)C)[C@H]2O)[C@](C)(OC)C[C@@H](C)C(=O)[C@H](C)[C@@H](O)[C@]1(C)O [CLR, clarithromycin]",≥ 32,≥ 32,,,,8,512,32,4,32,426,,32,16,0.5,4,4,effect on TNFα production (TNFα release; at a higher concentration (333 μM)): modest effects
"CC[C@H]1OC(=O)[C@H](C)[C@@H](O[C@H]2C[C@@](C)(OC)[C@@H](O)[C@H](C)O2)[C@H](C)[C@@H](O[C@@H]2O[C@H](C)C[C@H](N(C)C)[C@H]2O)[C@](C)(O)C[C@@H](C)C(=O)[C@H](C)[C@@H](O)[C@]1(C)O [ERY, erythromycin]",,,did not inhibit,> 333,,16,512,32,32,32,,,16,16,0.5,4,4,
